The nature of one data set: clinical. Conditions: for AUC/Dose: dose-adjusted AUC 0 to 6 h, n = 12. The source says: Phenolics in plasma were quantified according to the method of Chen, Milbury, Lapsley, and Blumberg. […] Subsequently, phenolics were extracted with acetonitrile. After centrifugation, the supernatant was removed, dried with nitrogen gas, and reconstituted in the aqueous HPLC mobile phase, filtered using Ultrafree Durapore Centrifugal filter devices (0.22, Merck Millipore, Billerica, MA, USA), and injected into the HPLC- ECD system, using previously optimized chromatographic conditions. The mobile phases were 75 mM citric acid and 25 mM ammonium acetate in 90% water/10% acetonitrile (A), and 75 mM citric acid and 25 mM ammonium acetate in 50% water/50% acetonitrile (B).
Results are expressed as mean ± standard deviation (SD). The maximum concentration (Cmax) in plasma and the time to reach Cmax (Tmax) were visually identified. The area under the concentration-time curve (AUC) of plasma phenolics was calculated using the linear trapezoidal integration equation [24]. The differences in Cmax, Tmax, and AUC of phenolics between mango flesh and juice treatments were examined using an analysis of covariance, with time 0 values as the covariant, followed by the Tukey-Kramer multi-comparison test. The Number Cruncher Statistical System version 6.0 software (NCSS, NCSS LLC, Kaysville, UT, USA) was used to perform all statistical analyses.

The nature of data set [1]: Urinary excretion (0–24 h) of phenolic compounds after 'Ataulfo' mango flesh or juice, HPLC-ECD. Conditions: for detection in urine: after mango flesh and juice consumption, 0–24 h; for urinary excretion, juice group versus flesh group: at 0–4 and 4–8 h, normalized to creatinine.
From the text: (§1) Twelve middle-aged healthy men aged 22 to 34 years were recruited from CIAD. […] All subjects were free of diagnosed heart disease, homeostatic disorders, gastrointestinal disease, or other medical conditions; they were not taking any medication or any vitamin/mineral supplement.
(§2) After baseline (time 0), blood and urine were collected, subjects were randomly assigned to consume mango flesh slices or juice in a 10-min period, in random order separated by a 3 day wash-out period. […] Blood was collected in a vacutainer tube containing EDTA as anticoagulant. Plasma was recovered, and 0.5 mL aliquots were immediately acidified using 20 µL of 4 M HCl. Acidified plasma and urine samples were stored at −80 °C until analysis. During blood collection, subjects were only allowed water, other foods and beverages were not allowed. They were given a hamburger without vegetables and ketchup for lunch. For dinner, they were allowed to eat a meal, but with the same restrictions as those of the wash-out period.
(§3) Phenolics in urine were quantified according to the method of McKay et al. [20]. Urine (200 µL) was dissolved in 800 µL of buffer (0.1 M sodium acetate, pH 5) and 30 µL of β-glucuronidase/sulfatase (98,000 kU/L β-glucuronidase and 2400 kU/L sulfatase), and incubated at 37 °C for 60 min. After incubation, 10 µL of 100 µg/mL internal standard (2′,3′,4′-trihydroxyacetophenone) and 200 µL glacial acetic acid were added, and the mixture was briefly vortexed. After the addition of approximately 1 g of NaCl, phenolics were extracted twice with 3 mL of ethyl acetate. The combined ethyl acetate fractions were dried under nitrogen gas and reconstituted in 1 mL of the aqueous HPLC mobile phase, filtered through a 0.22-µm Millex syringe-driven filter (Millipore Corporation, Bedford, MA, USA), and injected (50 µL) onto the HPLC-ECD system. […] The intraday CV for standards spiked into urine was <7%. Urinary phenolics were normalized to creatinine concentration, which was measured with a commercial kit.
The conditions of data set [2]: in vivo.
From the text: as §1, §2, §3
The mark [3] stands for this setting: after mango flesh and juice consumption, 0–6 h.
[4] abbreviates: male, human, plasma, oral, 500 g, AUC, plasma, time 0 to 6 h, after 500 g mango flesh, n = 12, mean ± SD.
The mark [5] stands for this setting: male, human, plasma, oral, 500 g, Cmax, plasma, after 500 g mango flesh, healthy men, n = 12, mean ± SD.
Where [6] appears, read: male, human, plasma, oral, 500 g, Tmax, plasma, after 500 g mango flesh, healthy men, n = 12, mean ± SD.
Where [7] appears, read: male, human, plasma, oral, 721 g, AUC, plasma, time 0 to 6 h, after 721 g mango juice, n = 12, mean ± SD.
[8] abbreviates: male, human, plasma, oral, 721 g, Cmax, plasma, after 721 g mango juice, healthy men, n = 12, mean ± SD.
The mark [9] stands for this setting: male, human, plasma, oral, 721 g, Tmax, plasma, after 721 g mango juice, healthy men, n = 12, mean ± SD.
[10] abbreviates: plasma, after 500 g mango flesh.
Setting [11] is: plasma, after 721 g mango juice.
The mark [12] stands for this setting: plasma, after 500 g mango flesh, healthy men, n = 12, mean ± SD.
The mark [13] stands for this setting: plasma, after 721 g mango juice, healthy men, n = 12, mean ± SD.

Read-outs that look alike come from different tables or passages of the source.

For orientation: AUC means concentration integrated over time. Low values mean less exposure, high ones more exposure. The Cmax is the highest concentration seen after dosing. For orientation: Tmax means the time at which the peak concentration occurs.

As for `O=C(/C=C/c1ccc(O)c(O)c1)O[C@@H]1C[C@](O)(C(=O)O)C[C@@H](O)[C@H]1O` [Chlorogenic acid, chlorogenic acid], the detection in plasma entry in “clinical” (setting [3]) is given as “detected in plasma”. Further, the AUC in “clinical” (setting [4]) stood at 209 ± 24.5 ng·h/mL; in the data set “clinical” (setting [7]), 367 ± 131 ng·h/mL. Also, the Cmax in “clinical” (setting [5]) is 49.7 ± 7.3 ng/mL; in “clinical” (setting [8]) it was 109.7 ± 0.26 ng/mL. The figures for the Tmax in the data set “clinical” (setting [6]) and in the data set “clinical” (setting [9]) were 3.5 ± 1.4 h and 2.5 ± 1.8 h, respectively. In addition, the “higher absorption from mango juice” value in the data set “clinical” (mango juice compared with flesh) is recorded as 62%. Besides, the AUC/Dose in the data set “clinical” (setting [10]) is given as 11.5 ± 1.78 (ng h/mL)/mg; in “clinical” (setting [11]) it was 50.12 ± 15.5 (ng h/mL)/mg.
For `COc1cc(/C=C/C(=O)O)ccc1O` [Ferulic acid, ferulic acid], in the data set “clinical” (setting [3]), the detection in plasma entry is on record as “detected in plasma”. Further, the Cmax is on record as 16.5 ± 3.9 ng/mL in “clinical” (setting [12]) and 32.7 ± 10.9 ng/mL in “clinical” (setting [13]). Also, the Tmax in “clinical” (setting [12]) is given as 2.8 ± 2.1 h; in the data set “clinical” (setting [13]) it was 2.3 ± 1.5 h. Further, the AUC/Dose in the data set “clinical” (setting [10]) is 31.0 ± 9.63 (ng h/mL)/mg; in “clinical” (setting [11]) it was 83.8 ± 30.2 (ng h/mL)/mg. The AUC was 60.2 ± 22.7 ng·h/mL in the data set “clinical” (plasma, time 0 to 6 h, after 500 g mango flesh, n = 12, mean ± SD) and 133.4 ± 47.7 ng·h/mL in “clinical” (plasma, time 0 to 6 h, after 721 g mango juice, n = 12, mean ± SD). The detection in urine result in data set [1] was “detected in urine”. In addition, the “urinary excretion, juice group versus flesh group” value in data set [1] is “significantly higher”.
As for `O=C(O)c1cc(O)c(O)c(O)c1` [Gallic acid, gallic acid], the AUC in “clinical” (male, human, in vivo) amounted to 38.5 ± 14.5 ng·h/mL; in the data set “clinical” (male, human, in vivo, AUC), 36.9 ± 24.3 ng·h/mL. Besides, the Cmax was 7.9 ± 4.7 ng/mL in the data set “clinical” (male, human, in vivo) and 8.7 ± 1.7 ng/mL in the data set “clinical” (male, human, in vivo, Cmax). Moreover, the Tmax in “clinical” (male, human, in vivo, Tmax, plasma, after 500 g mango flesh, healthy men, n = 12, mean ± SD) came out at 4.4 ± 1.1 h; in “clinical” (male, human, in vivo, Tmax, plasma, after 721 g mango juice, healthy men, n = 12, mean ± SD), 3.5 ± 1 h.
Take `O=C(O)c1cc(O)ccc1O` [Gentisic acid, gentisic acid]: the detection in plasma result in “clinical” (setting [3]) is on record as “detected in plasma”. Besides, the AUC in “clinical” (male, human, in vivo) came to 50.9 ± 11.0 ng·h/mL; in “clinical” (male, human, in vivo, AUC), 53.1 ± 8.3 ng·h/mL. The Cmax in the data set “clinical” (male, human, in vivo) came to 12.2 ± 0.2 ng/mL; in the data set “clinical” (male, human, in vivo, Cmax), 11.8 ± 2.1 ng/mL. For the same compound, the Tmax worked out at 2.8 ± 1.9 h in the data set “clinical” (male, human, in vivo) and 4 ± 1.4 h in “clinical” (male, human, in vivo, Tmax). The AUC/Dose in “clinical” (setting [10]) is recorded as 221.2 ± 34.0 (ng h/mL)/mg; in the data set “clinical” (setting [11]), 282.7 ± 59.1 (ng h/mL)/mg. The detection in urine entry in data set [1] is “not in urine”.
For `O=C(O)c1ccc(O)c(O)c1` [Protocatechuic acid, protocatechuic acid], the detection in plasma result in “clinical” (setting [3]) was “detected in plasma”. In addition, the AUC is 141 ± 73.9 ng·h/mL in “clinical” (setting [4]) and 109 ± 5.4 ng·h/mL in “clinical” (setting [7]). Besides, the results for the Cmax in the data set “clinical” (setting [5]) and in the data set “clinical” (setting [8]) were 30.8 ± 13.3 ng/mL and 34.5 ± 18 ng/mL, respectively. In addition, the Tmax in the data set “clinical” (setting [6]) amounted to 3.5 ± 2 h; in the data set “clinical” (setting [9]) it was 3.7 ± 1.7 h. For the same compound, the “greater absorption from mango flesh” value in “clinical” (mango flesh compared with juice) worked out at 49%. The AUC/Dose in the data set “clinical” (setting [10]) is 344.8 ± 138.3 (ng h/mL)/mg; in “clinical” (setting [11]), 204.90 ± 9.9 (ng h/mL)/mg. Moreover, the detection in urine entry in data set [1] was “not in urine”.
Turning to `Oc1cccc(O)c1O` [Pyrogallol, pyrogallol], in data set [1], the detection in urine result was “found in urine”.
For `COc1cc(C(=O)O)ccc1O` [Vanillic acid, vanillic acid], the detection in plasma entry in the data set “clinical” (setting [3]) was “not in plasma”. Further, the detection in urine entry in data set [1] is reported as “detected in urine”. Besides, in data set [1] (compared with the other urinary phenolics, values higher in the juice group), the “urinary AUC/dose excretion” value is reported as “Higher”.
As for `O=C(O)/C=C/c1ccc(O)cc1` [p-coumaric acid], in data set [1], the detection in urine entry is recorded as “detected in urine” and the “urinary excretion, juice group versus flesh group” value was “significantly higher”.
With `COc1cc(/C=C/C(=O)O)cc(OC)c1O` [sinapic acid], in the data set “clinical” (in vivo), the detection in plasma result is “not in plasma”. The “urinary AUC/dose excretion” value in data set [2] (human) was “Higher”. Moreover, the detection in urine result in data set [2] is given as “detected in urine”.

For the origin of these results see article PMC5691699, “Processing ‘Ataulfo’ Mango into Juice Preserves the Bioavailability and Antioxidant Capacity of Its Phenolic Compounds” (Nutrients, 2017).
